Test results published in ChEMBL document CHEMBL4385650, “X-ray crystal structures, density functional theory and docking on deacetylase enzyme for antiproliferative activity of hispolon derivatives on HCT116 colon cancer” (Bioorg Med Chem, 2019).
pIC50: −log10 of the molar value.

These compounds were tested on HCT-116 (assay: Antiproliferative activity against human HCT116 cells assessed as reduction in cell viability incubated for 72 hrs by MTT assay). Settings: HCT-116, 72 h.
Format: functional, cell-based
In the case of `CC(=O)CC(=O)/C=C/c1ccc(O)c(O)c1`, the pIC50 was 5.28. Work on `COc1cc(CCC(=O)CC(C)=O)ccc1O` yielded a pIC50 of 3.74. For `COc1cc(/C=C/C(=O)CC(C)=O)ccc1O`, the pIC50 was 5.85. For `CC(=O)CC(=O)/C=C/c1ccc(O)cc1`, the pIC50 was 4.44. With `COc1ccc(/C=C/C(=O)CC(C)=O)cc1OC` the pIC50 was 5.33. Work on `CC(=O)CC(=O)CCc1ccc(O)cc1` yielded a pIC50 of 3.67. `COc1ccc(CCC(=O)CC(C)=O)cc1OC` showed a pIC50 of 3.67. With `COc1cc(/C=C/C(=O)CC(C)=O)cc(OC)c1OC` the pIC50 was 4.54. For `COc1cc(/C=C/C(=O)CC(C)=O)cc(OC)c1O`, the pIC50 was 4.61. `COc1cc(OC)c(/C=C/C(=O)CC(C)=O)c(OC)c1` was tested, and the pIC50 was 5.07. `COc1cc(OC)c(CCC(=O)CC(C)=O)c(OC)c1` was tested, and the pIC50 was 3.86. Compound `COc1cc(CCC(=O)CC(C)=O)cc(OC)c1OC` has a pIC50 of 3.86. `COc1cc(/C=C/C(=O)CC(=O)/C=C/c2ccc(O)c(OC)c2)ccc1O` [CURCUMIN] gave a pIC50 of 4.98.
